# Assay results taken from US20030130484A1, “Inhibitors and disassemblers of fibrillogenesis” (priority 2001, published 2003).
# Entries after “also recorded” stand apart in the source; their conditions may differ. Square brackets hold non-standard residues; d marks the D form. Peptide text beside a SMILES is read from it. NMeF = CN[C@@H](Cc1ccccc1)C(=O)O; PhLac = O=C(O)[C@@H](O)Cc1ccccc1; NMeL = CN[C@@H](CC(C)C)C(=O)O; NMeV = CN[C@H](C(=O)O)C(C)C; Hiv = CC(C)[C@H](O)C(=O)O; NMeA = CN[C@@H](C)C(=O)O
# Experiments:
# Aβ40 = Aβ40 (Homo sapiens, UniProt P05067); assay: Inhibition of Aβ40 fibrillogenesis, thioflavin T fluorescence assay; type: biochemical
# Aβ40, sequence (P05067 672-711): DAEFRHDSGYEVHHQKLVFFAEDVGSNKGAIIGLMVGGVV
# Aβ40 fibrils [1] = target: T1, Aβ40 fibrils (Homo sapiens, UniProt P05067); assay: Electron microscopy of Aβ40 fibril inhibition and disassembly samples; type: biochemical; settings: Aβ40 incubated with inhibitor peptide
# T1 sequence (P05067 672-711): as above
# Aβ1-40 fibrils = Aβ1-40 fibrils (Homo sapiens, UniProt P05067); assay: Congo Red binding assay of Aβ1-40 fibril inhibition and disassembly; type: biochemical
# Aβ1-40 fibrils, sequence (P05067 672-711): as above
# Method: Thioflavin T fluorescence is well known as a sensitive assay for the formation of amyloid fibrils. […] The Congo Red binding assay was performed essentially as described in other publications (Klunk 1989). An aliquot of peptide solution containing 50 μg of peptide was added to 1 ml of a […] solution of Congo Red in 100 mM phosphate buffer, pH 7.4. The solution was incubated for 15 min at room temperature and then the absorbance was measured from 400-600 nm.
# [2] = Fibril formation by the peptide alone (electron microscopy, Congo Red); type: physicochemical
# Method: After incubation of the inhibition and disassembly samples for the appropriate period of time, an aliquot of each sample was applied to a glow-discharge, 400-mesh, carbon-coated support film and stained with 1% uranyl acetate. Micrographs were recorded using Philips EM300 at magnifications of 17,000, 45,000 and 100,000.
# The Congo Red binding assay was performed essentially as described in other publications (Klunk 1989). An aliquot of peptide solution containing 50 μg of peptide was added to 1 ml of a […] solution of Congo Red in 100 mM phosphate buffer, pH 7.4. The solution was incubated for 15 min at room temperature and then the absorbance was measured from 400-600 nm.
# For the electron microscopy, aliquots of the inhibition and disassembly samples were applied to a glow-discharge, 400-mesh, carbon-coated support film and stained with 1% uranyl acetate. Micrographs were recorded using a Philips EM300 at magnifications of 17,000, 45,000 and 100,000.
# Aβ40 fibrils [3] = target: T1, Aβ40 fibrils
# [4] = Solubility in aqueous media and organic solvents
# COS cells = assay: COS cell uptake of fluorescent peptides, fluorescence microscopy and HPLC reisolation; type: cell-based
# Method: (§1) Briefly, COS cells, were plated on coverslips, and incubated overnight in the presence of 4 μM to β40 μM of the Anth-A16-20 peptide. The cells on coverslips were then washed extensively with PBS, fixed for one hour with a 3.7% formaldehyde solution and mounted on a slide. The cells were examined by fluorescence microscopy using a DAPI filter.
# as §1, with “COS” for “Briefly, COS”, “cells,” for “cells, were”, “coverslips, were” for “coverslips, and”, “to 40” for “to β40”, “the Anth-Aβ16-20” for “the Anth-A16-20”
# In this experiment, Anth-Aβ16-20m was incubated with COS cells for eight hours. […] The cells were then lysed by the addition of Triton X-100 to 0.1% (v/v), and the lysate was analyzed by HPLC. The HPLC solvent system contained 0.1% trifluoroacetic acid in water (solvent A) and 0.1% trifluoroacetic acid in acetonitrile (solvent B). The peptide was eluted with a gradient of 0%-60% solvent B in 60 minutes. Fractions (1 ml) from the HPLC were collected and analyzed by fluorescence spectroscopy. The excitation and emission wavelengths were 346 nm and 435 nm, respectively.
# chymotrypsin = chymotrypsin (Bos taurus, UniProt P00766); assay: Chymotrypsin digestion (protease resistance), RP-HPLC; type: in vitro ADME; settings: 24 h at 37° C., 0.1 mg/ml chymotrypsin, pH 8.4
# Method: Peptides were incubated for 24 h at 37 C with […] chymotrypsin. The percentage of undigested peptide was determined by RC-HPLC as described in the Materials and Methods. […] The arrow marks the position of the intact.
# The peptides were dissolved in 0.5% ammonium bicarbonate at a concentration of 1.0 mg/ml. The pH of the solution was 8.4. Chymotrypsin (Worthington Biochemical Corporation) was added to the peptide solutions so that the final concentration was 0.1 mg/ml. Samples were incubated at 37° C. After twenty-four hrs, the samples were frozen and lyophilized. The samples were analyzed by reverse-phase HPLC using an analytical C 18 column (Rainin Microsorb) and eluted, using a 60 min gradient from 10-70% acetonitrile, containing 0.1% (v/v) TFA. The loss of intact peptide and appearance of fragments were quantitated by integration of the appropriate peaks. Results were expressed as a percent digestion of the peptides. In addition, identities of the peaks were confirmed by electrospray mass spectrometry.
# The peptides were dissolved in 0.5% ammonium bicarbonate at a concentration of 1.0 mg/ml. […] After twenty-four hours, the samples were lyophilized and then analyzed by reverse-phase HPLC (Rainin-Microsorb C18 column) and a water-acetonitrile (0.1% (v/v) TFA) gradient (10-70% acetonitrile over one h).
smiles,measurement,setting,value
"CC(=O)N[C@@H](CCCCN)C(=O)N[C@@H](CC(C)C)C(=O)O[C@H](C(=O)N[C@@H](Cc1ccccc1)C(=O)O[C@@H](Cc1ccccc1)C(N)=O)C(C)C [Aβ16-20e, Ac—NH—KLesterVFesterF—CONH2] (Ac-KL[Hiv]F[PhLac]-NH2)",Inhibition ICmax,Aβ40,100
same,"fibrillar material by electron microscopy, inhibition samples",Aβ40 fibrils [1],Fibrillar material was not observed
same,"Congo Red spectrum, pre-formed Aβ1-40 fibrils to which inhibitor was added",Aβ1-40 fibrils; disassembly,identical to the control spectrum of Congo Red alone
same,"Congo Red spectrum, Aβ1-40 incubated with inhibitor",Aβ1-40 fibrils; inhibition,identical to the control spectrum of Congo Red alone
same,fibril formation by the peptide alone,[2],does not cause a change in the absorbance spectrum of Congo Red
same,Disassembly ICmax,Aβ40 fibrils [3],100
"CC(=O)N[C@@H](CCCCN)C(=O)N[C@@H](CC(C)C)C(=O)N[C@H](C(=O)N[C@@H](Cc1ccccc1)C(=O)N[C@@H](Cc1ccccc1)C(N)=O)C(C)C [Aβ16-20, reference compound]",Inhibition ICmax,Aβ40,89
same,fibril formation by the peptide alone,[2],aggregates to form amyloid fibrils; also recorded: bind Congo Red
same,solubility,[4],~1000 µM
CNc1ccccc1C(=O)N[C@@H](CCCCN)C(=O)N[C@@H](CC(C)C)C(=O)N[C@H](C(=O)N[C@@H](Cc1ccccc1)C(=O)N[C@@H](Cc1ccccc1)C(N)=O)C(C)C [Anth-Aβ16-20],Inhibition of Fibrilogenesis ICmax,Aβ40,100%
same,fluorescence of COS cells,COS cells; peptide concentration 20 μM,Strong fluorescence
same,fluorescence of COS cells,COS cells; peptide levels below 4 μM,Very weak fluorescence
same,Fibril Disassembly ICmax,Aβ40 fibrils [3],100%
CC(=O)N[C@@H](CCCCN)C(=O)N[C@@H](CC(C)C)C(=O)N(C)[C@H](C(=O)N[C@@H](Cc1ccccc1)C(=O)N(C)[C@@H](Cc1ccccc1)C(N)=O)C(C)C [Aβ16-20m2],solubility in aqueous media (in words),[4],highly soluble in aqueous media
"CC(C)C[C@H](NC(=O)[C@@H](N)CCCCN)C(=O)N(C)[C@H](C(=O)N(C)[C@@H](Cc1ccccc1)C(=O)N(C)[C@@H](Cc1ccccc1)C(=O)N(C)[C@@H](C)C(=O)N[C@@H](CCC(=O)O)C(N)=O)C(C)C [Aβ16-22m(4), NH2-KL(me-V)(me-F)(me-F)(me-A)-E-CONH2] (H-KL[NMeV][NMeF][NMeF][NMeA]E-NH2)",Inhibition of Fibrillogenesis ICmax,Aβ40,100
same,Inhibition of Fibrilogenesis ICmax,Aβ40,100%
same,solubility in aqueous media (in words),[4],highly soluble in water
"CC(C)C[C@H](NC(=O)[C@@H](N)CCCCN)C(=O)N[C@H](C(=O)N[C@@H](Cc1ccccc1)C(=O)N[C@@H](Cc1ccccc1)C(=O)N[C@@H](C)C(=O)N[C@@H](CCC(=O)O)C(N)=O)C(C)C [Aβ16-22, NH2-KLVFFAE-CONH2] (H-KLVFFAE-NH2)",Inhibition of Fibrillogenesis ICmax,Aβ40,23.0
same,Inhibition of Fibrilogenesis ICmax,Aβ40,23.0%
same,effect on Aβ40 fibril formation (in words),Aβ40,relatively modest inhibitory effect
same,inhibition of fibrillogenesis,Aβ40,10-20%
same,chymotrypsin digestion,chymotrypsin,cleaved by chymotrypsin
"CC(=O)N[C@@H](CCCCN)C(=O)N[C@@H](CC(C)C)C(=O)N[C@H](C(=O)N[C@@H](Cc1ccccc1)C(=O)N[C@@H](Cc1ccccc1)C(N)=O)C(C)C [Ac-Aβ16-20, Ac-NH-KLVFF-CONH2, reference compound]",Inhibition of Fibrillogenesis ICmax,Aβ40,100
same,Inhibition of Fibrilogenesis ICmax,Aβ40,100%
same,disassembly of pre-formed Aβ40 fibrils (in words),Aβ40 fibrils [3]; thioflavin fluorescence,disassembled pre-formed
"CNc1ccccc1C(=O)N[C@@H](CCCCN)C(=O)N(C)[C@@H](CC(C)C)C(=O)N[C@H](C(=O)N(C)[C@@H](Cc1ccccc1)C(=O)N[C@@H](Cc1ccccc1)C(N)=O)C(C)C [Anth-Aβ16-20m, Anth-NH—K(me-L)V(me-F)F—CONH2]",Inhibition ICmax,Aβ40,100
same,integrity of peptide internalized by COS cells and reisolated (HPLC),COS cells; overnight incubation,not modified or degraded
same,fluorescence of COS cells,COS cells; peptide levels below 4 μM,Very weak fluorescence
same,intracellular fluorescence / permeation of COS cell membranes,COS cells; twelve hours incubation,permeates cell membranes
"CC(C)C[C@@H](C(=O)N[C@H](C(=O)N(C)[C@@H](Cc1ccccc1)C(=O)N[C@@H](Cc1ccccc1)C(=O)N(C)[C@@H](C)C(=O)N[C@@H](CCC(=O)O)C(N)=O)C(C)C)N(C)C(=O)[C@@H](N)CCCCN [Aβ16-22m, NH2-K(me-L)V(me-F)F(me-A)-E-CONH2] (H-K[NMeL]V[NMeF]F[NMeA]E-NH2)",Inhibition of Fibrillogenesis ICmax,Aβ40,100
same,Inhibition of Fibrilogenesis ICmax,Aβ40,100%
same,effect on Aβ40 fibril formation (in words),Aβ40,prevented fibril formation of Aβ40 in a dose dependent manner
same,molar excess of inhibitor giving complete elimination of thioflavin fluorescence (complete inhibition),Aβ40,> 30
same,"fibrillar material by electron microscopy, inhibition samples",Aβ40 fibrils [1],complete lack of fibrils
same,chymotrypsin digestion,chymotrypsin,complete resistance; also recorded: highly resistant
same,fibril formation by the peptide alone,[2],no fibrillar or aggregated material
same,solubility in aqueous media (in words),[4],highly soluble in aqueous solutions; also recorded: highly soluble in aqueous media
same,solubility relative to unmethylated congener,[4]; physiological pH and ionic strength,20-40 times
"CC(C)C[C@@H](C(=O)N[C@H](C(=O)N(C)[C@@H](Cc1ccccc1)C(=O)N[C@@H](Cc1ccccc1)C(=O)N(C)[C@@H](C)C(=O)N[C@@H](CCCCN)C(N)=O)C(C)C)N(C)C(=O)[C@@H](N)CCC(=O)O [Aβ16-22mR, NH2-E(me-L)V(me-F)F(me-A)-K-CONH2] (H-E[NMeL]V[NMeF]F[NMeA]K-NH2)",Inhibition of Fibrillogenesis ICmax,Aβ40,100
same,Inhibition of Fibrilogenesis ICmax,Aβ40,100%
same,effect on Aβ40 fibril formation (in words),Aβ40,prevented fibril formation of Aβ40 in a dose dependent manner
same,solubility in aqueous media (in words),[4],highly soluble in aqueous solutions
"CC(C)[C@H](NC(=O)[C@H](C(C)C)N(C)C(=O)[C@H](C)NC(=O)[C@H](C)NC(=O)[C@H](C)NC(=O)[C@H](C)N(C)C(=O)[C@H](C)NC(=O)CN)C(N)=O [PrPm, NH2-GA(me-A)AAA(me-V)V-CONH2] (H-GA[NMeA]AAA[NMeV]V-NH2)",Inhibition of Fibrillogenesis ICmax,Aβ40,8.6
same,Inhibition of Fibrilogenesis ICmax,Aβ40,8.6%
same,effect on Aβ40 fibril formation (in words),Aβ40,no effect
